# Laboratory results: US10118966B2, “Anti-EGFR monoclonal antibody, methods of making, and uses thereof in the treatment of cancer” (Shanghai Biomabs Pharmaceuticals Co., Ltd., priority 2015, dated 2018)
# Where two headings read alike, the source gives them in different places.
# Tests used:
# [1] = system: metastatic colorectal cancer; assay: CMAB009 Ph2/3 trial; type: in vivo, human
# Experimental: 501 patients were identified and randomized in a 2:1 manner to group 1 or group 2. […] Patients in both groups were treated until the disease progressed or the patient reached an unacceptable level of toxicity.
# Patients were evaluated for radiologic response in both group 1 and group 2. […] Note the overall response rate (ORR) in Table 6 was determined according to the sum of the rate of CR and PR, and the disease control rate (DCR) was determined according to the sum of the rates of CR, PR, and SD.
# [2] = system: metastatic colorectal cancer; conditions: EPIC, cited from earlier work
# [3] = radiologic response, n = 337 / n = 164
# [4] = radiologic response, n = 648 / n = 650
structure (smiles),measurement,setting,value
"CCc1c2c(nc3ccc(OC(=O)N4CCC(N5CCCCC5)CC4)cc13)-c1cc3c(c(=O)n1C2)COC(=O)[C@]3(O)CC [Irinotecan monotherapy, irinotecan]",Time to disease progression,[1]; CMAB009 Ph2/3 trial,3.2 months
same,"Test drug-related death AE, no. of patients",[1]; N = 342 / N = 170,0
same,"At least one ADR, %","[1]; human, in vivo",(74.1%)
same,"At least one ADR, no. of patients","[1]; human, in vivo",126
same,"At least one AE which lead to stop drug treatment, %","[1]; human, in vivo",(15.9%)
same,"At least one AE which lead to stop drug treatment, no. of patients","[1]; human, in vivo",27
same,"At least one AE, %","[1]; human, in vivo",(87.1%)
same,"At least one AE, no. of patients","[1]; human, in vivo",148
same,"At least one Level III or above ADR, %","[1]; human, in vivo",(5.9%)
same,"At least one Level III or above ADR, no. of patients","[1]; human, in vivo",10
same,"At least one Level III or above AE, %","[1]; human, in vivo",(7.1%)
same,"At least one Level III or above AE, no. of patients","[1]; human, in vivo",12
same,"At least one Level III or above important AE, %","[1]; human, in vivo",(6.5%)
same,"At least one Level III or above important AE, no. of patients","[1]; human, in vivo",11
same,"At least one SAE, %","[1]; human, in vivo",(4.7%)
same,"At least one SAE, no. of patients","[1]; human, in vivo",8
same,"At least one important AE, %","[1]; human, in vivo",(70.6%)
same,"At least one important AE, no. of patients","[1]; human, in vivo",120
same,"At least one test drug-related SAE, %","[1]; human, in vivo",(0.6%)
same,"At least one test drug-related SAE, no. of patients","[1]; human, in vivo",1
same,"Grade 3-4 adverse events: Abdominal pain, no. of patients","[1]; human, in vivo",0
same,"Grade 3-4 adverse events: Acne-like rash, no. of patients","[1]; human, in vivo",0
same,"Grade 3-4 adverse events: Anemia, no. of patients","[1]; human, in vivo",3
same,"Grade 3-4 adverse events: Anemia, rate in parentheses","[1]; human, in vivo",1.8
same,"Grade 3-4 adverse events: Any, no. of patients","[1]; human, in vivo",57
same,"Grade 3-4 adverse events: Asthenia, no. of patients","[1]; human, in vivo",6
same,"Grade 3-4 adverse events: Asthenia, rate in parentheses","[1]; human, in vivo",3.7
same,"Grade 3-4 adverse events: Diarrhea, no. of patients","[1]; human, in vivo",12
same,"Grade 3-4 adverse events: Diarrhea, rate in parentheses","[1]; human, in vivo",7.3
same,"Grade 3-4 adverse events: Fever, no. of patients","[1]; human, in vivo",1
same,"Grade 3-4 adverse events: Fever, rate in parentheses","[1]; human, in vivo",0.9
same,"Grade 3-4 adverse events: Nausea and vomiting, no. of patients","[1]; human, in vivo",16
same,"Grade 3-4 adverse events: Nausea and vomiting, rate in parentheses","[1]; human, in vivo",9.8
same,"Grade 3-4 adverse events: Neutropenia, no. of patients","[1]; human, in vivo",14
same,"Grade 3-4 adverse events: Neutropenia, rate in parentheses","[1]; human, in vivo",8.5
same,"Grade 3-4 adverse events: Stomatitis, no. of patients","[1]; human, in vivo",0
same,"Grade 3-4 adverse events: Thrombocytopenia, no. of patients","[1]; human, in vivo",0
same,"Complete response, no. of patients",[1]; [3],1
same,"Complete response, rate in parentheses",[1]; [3],(0.6)
same,"Partial response, no. of patients",[1]; [3],20
same,"Partial response, rate in parentheses",[1]; [3],(12.2)
same,"Progressive disease, no. of patients",[1]; [3],44
same,"Progressive disease, rate in parentheses",[1]; [3],(26.8)
same,"Stable disease, no. of patients",[1]; [3],86
same,"Stable disease, rate in parentheses",[1]; [3],(52.4)
same,"Unable to evaluate, no. of patients",[1]; [3],13
same,"Unable to evaluate, rate in parentheses",[1]; [3],(7.9)
same,"Overall response rate, no. of patients","[1]; sum of CR and PR, n = 337 / n = 164",21
same,"Disease control rate, no. of patients","[1]; sum of CR, PR and SD, n = 337 / n = 164",107
same,"Overall response rate, rate in parentheses","[1]; sum of the rate of CR and PR, n = 337 / n = 164",(12.8
same,"Disease control rate, rate in parentheses","[1]; sum of the rates of CR, PR, and SD, n = 337 / n = 164",(65.2
same,Overall survival,[2],10.0 months
same,Time to disease progression,[2],2.6 months
same,"Disease control rate, no. of patients",[2]; n = 648 / n = 650,298
same,"Disease control rate, rate in parentheses",[2]; n = 648 / n = 650,(45.8)
same,"Overall response rate, no. of patients",[2]; n = 648 / n = 650,27
same,"Overall response rate, rate in parentheses",[2]; n = 648 / n = 650,(4.2
same,"Complete response, no. of patients",[2]; [4],1
same,"Complete response, rate in parentheses",[2]; [4],(0.2)
same,"Partial response, no. of patients",[2]; [4],26
same,"Partial response, rate in parentheses",[2]; [4],(4.0)
same,"Progressive disease, no. of patients",[2]; [4],243
same,"Progressive disease, rate in parentheses",[2]; [4],(37.4)
same,"Stable disease, no. of patients",[2]; [4],271
same,"Stable disease, rate in parentheses",[2]; [4],(41.7)
same,"Unable to evaluate, no. of patients",[2]; [4],72
same,"Unable to evaluate, rate in parentheses",[2]; [4],(11.1)
